Data reported in patent EP4140481A1, “PROTEIN-OLIGOMER BINDING AGENTS AND THERAPEUTIC USES THEREOF” (Galyan Bio, Inc., priority 2021, dated 2023).

Columns and labels:
Amyloid-β 1-40 (Ab40) = target: T1, Amyloid-β 1-40 (Ab40) (Homo sapiens, UniProt P05067); assay: Dynamic Light Scattering (DLS), induced aggregation; type: biochemical; details: equimolar Compound 4
T1 construct: purchased rPeptide, Watkinsville, Georgia A-1153-2
Protocol: Proteins were ultracentrifuged with 50,000 rpm (rounds per minute) for one hour at 2 °C. The supernatant was used for DLS measurements. DLS measurements were conducted with Malvern Zetasizer Nano (Malvern Panalytical Ltd, United Kingdom).
Amyloid-β 1-40 (Ab40) (catalog A-1153-2, rPeptide, Watkinsville, Georgia) Sequence
The aliquots of lyophilized Amyloid-β 1-40 (Ab40) peptide were hydrated at room temperature in 50 mM phosphate buffer pH 7.4 and 100 mM NaCl (Buffer 1)
The aliquots of lyophilized Ab peptide were hydrated at room temperature in 75 mM MOPS pH 7.4 and 2 mM CaCl2 (Buffer 2)

[1] = Body weight in R6/2 mice of Huntington's disease; type: in vivo
Protocol: Methods ― Total of 20 female and male R6/2 mice and 10 female and male wild-type littermate control mice (WT) were used in the study. The mice were genotyped and the R6/2 mice were divided into different treatment groups based on their litter and baseline body weight. The treatment with Vehicle or Compound 22 (33 mg/kg; 5 ml/kg, i.p. QD) was started at 4 weeks of age after the baseline behavioral tests (Figure 6). Body weights were measured at 3 weeks of age and twice a week until the end of the study.
The experimental groups were: • Group 1) 10 wild-type mice (mixed gender) treated with Vehicle (5 ml/kg, i.p., QD) starting at 4 weeks of age • Group 2) 10 R6/2 mice (mixed gender) treated with Vehicle (5 ml/kg, i.p., QD) starting at 4 weeks of age • Group 3) 10 R6/2 mice (mixed gender) treated with Compound 22 (33 mg/kg; 5 ml/kg, i.p. QD) starting at 4 weeks of age
Compound Delivery and Dosing - Treatment with Compound 22 (33 mg/kg; 5 ml/kg, i.p. QD) or Vehicle was started at age week 4 and continued until the 12 weeks of age. The test articles were handled and stored and the dose formulations were prepared according to detailed instructions provided by the Sponsor.
Body Weight - Body weight was measured starting at 3 weeks of age before treatment onset and two times per week on the same day (on Monday and Friday) until the end of the study.

LC3 = assay: Autophagic flux (LC3 staining); type: cell-based, mouse
Protocol: Staining - Cells were permeabilized with 0.3% Triton X-100 in 4 °C PBS (pH 7.4 from ThermoFisher) for 10 minutes. Then the cells were washed two times with 4 °C PBS. Subsequently, cells are blocked with 3% NGS (normal goat serum from Thermo Fisher) in 4 ° C PBS for 1 hour. Cells were incubated with primary antibodies in blocking buffer (PBS, 3% NGS, 0.02% NaN3) over night at 4 °C. Primary antibodies were mouse antipolyglutamine monoclonal antibody 3B5H10 (Sigma-Aldrich) at 1:250 dilution and Guinea Pig anti-MAP2 polyclonal antibody (Synaptic Systems) at 1:500 dilution. […]
Fluorescence Imaging - Imaging sessions were performed on a confocal microscope system (Carl Zeiss Microscopy) equipped with a dual spinning disk unit (Yokogawa). […] The fluorescence images obtained of the immunofluorescence labelled tissue sections were quantified with the help of the "Image Processing and Analysis in Java" or short ImageJ software distributed under the GNU General Public License by the NIH (Rueden, C.T. et al., BMC Bioinformatics. 2017 Nov 29;18(1):529), i.e. the edition used was the Fiji distribution (Schindelin, J. et al., Nature methods. 2012 Jun 28;9(7):676-82). […]
Autophagic flux was calculated as the area stained with LC3 antibody per cell in STHdh 111/111 with autophagy inhibitor NH4CI minus area stained with LC3 antibody per cell in STHdh 111/111 without the autophagy inhibitor NH4CI.

[2] = Buffer 1, Ab40 154 µM, 100% of Ab40
[3] = by intensity, Buffer2, Ab40 155 µM

T1 sequence (P05067 672-711): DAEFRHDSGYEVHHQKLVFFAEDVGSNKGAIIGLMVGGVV

Row | SMILES | mean size, distribution by number (Amyloid-β 1-40 (Ab40); [2]) [nm] | mean size, distribution by volume (Amyloid-β 1-40 (Ab40); [2]) [nm] | Size, Peak 1 (Amyloid-β 1-40 (Ab40); by intensity, Buffer2 (MOPS, CaCl2), Ab40 155 µM) [nm] | % Intensity, Peak 1 (Amyloid-β 1-40 (Ab40); [3]) [%] | % Intensity, Peak 2 (Amyloid-β 1-40 (Ab40); [3]) [%] | % Intensity, Peak 3 (Amyloid-β 1-40 (Ab40); [3]) [%] | Size, Peak 2 (Amyloid-β 1-40 (Ab40); [3]) [nm] | Size, Peak 3 (Amyloid-β 1-40 (Ab40); [3]) [nm] | body weight ([1]; 33 mg/kg i.p. QD, R6/2 mice 3 to 12 weeks, versus vehicle treated R6/2 mice) | Body weight loss ([1]; female R6/2 mice at week 12, in comparison to untreated female R6/2 mice) | Body weight loss improvement ([1]; male R6/2 mice at week 12, in comparison to untreated male R6/2 mice) | autophagic flux (LC3; STHdh 111/111, LC3 area with NH4Cl minus without NH4Cl) | LC3 stained area (LC3; STHdh 111/111 neurons versus untreated, p < 0.001)
1 | CCc1c(C)[nH]c2ccc(C(=O)NCCN(CC)CC)cc12 [Compound 4, N-(2-(diethylamino)ethyl)-3-ethyl-2-methyl-1H-indole-5-carboxamide] | 141.5 | 208.5 | 304.8 | 55.5 | 33.5 | 6.1 | 77.06 | 0.7710 |  |  |  |  | 
2 | Cc1[nH]c2ccc(C(=O)NCCN(C(C)C)C(C)C)cc2c1C [Compound 22] |  |  |  |  |  |  |  |  | no significant differences | significantly improved | not observed | positive autophagic flux | decreased
